pIC50: −log10 of the molar value.
Test system: H460 cells
Assay: Proliferation assay in H460 cells (2 hr exposure, AlamarBlue)
Format: cell-based, human
Conditions: 2 hrs exposure, wash, 70 hrs growth, read-out: IC 50 in proliferation assay in H460 cells
Protocol: In vitro proliferation data on the H460 […] human tumor cell line is reported above in the compound table.
Specifically, exponentially growing cells were seeded at a density of 4×10^3 cells per well in a 96 well plate and incubated at 37° C. in 5% CO2, 95% air and 100% relative humidity for 24 hours prior to addition of test compounds. Compounds were solubilized in 100% DMSO at 200 times the desired final test concentration. At the time of drug addition, compounds were further diluted to 4 times the desired final concentration with complete medium. Aliquots of 50 μl of compound at specified concentrations were added to microtiter wells already containing 150 μl of medium, resulting in the final drug concentration reported. After drug addition, the plates were incubated for an additional 2 hours at 37° C., 5% CO2, 95% air, and 100% relative humidity, then the drug was washed off and fresh medium was added and the plates were incubated for addition 70 hrs at 37° C., 5% CO2, 95% air and 100% relative humidity. At the end of this incubation, the viable cells were quantified using the AlamarBlue assay. The drug concentration resulting in growth inhibition of 50% (IC50) was calculated using Prism software (Irvine, Calif.), and the results were listed in the table.

With `CC(OP(=O)(N1CC1)N1CC1)c1ccc([N+](=O)[O-])c(Oc2cccc([N+](=O)[O-])c2)c1` (stereo not drawn) [Compound 2922] the pIC50 was 8.52.
`CC(OP(=O)(N1CC1)N1CC1)c1ccc([N+](=O)[O-])c(Oc2cccc([N+](=O)[O-])c2)c1` (stereo not drawn) [Compound 2942] gave a pIC50 of 7.70.

Same assay, conditions: Homo sapiens, NCI-H460, 2 hrs exposure, wash, 70 hrs growth, read-out: IC 50 in proliferation assay in H460 cells

First: CC(OP(=O)(N1CC1)N1CC1)c1cc(Oc2ccccc2)c([N+](=O)[O-])cc1F (stereo not drawn) [Compound 2846]
Second: CC(OP(=O)(N1CC1)N1CC1)c1ccc(Oc2ccccc2)c([N+](=O)[O-])c1 (stereo not drawn) [Compound 2906, reference compound]
The pIC50 of the first is 1.82 log units higher: 7.22 for the first, 5.40 for the second.

First: CCOC(=O)c1ccc(Oc2cc(C(C)OP(=O)(N3CC3)N3CC3)ccc2[N+](=O)[O-])cc1 (stereo not drawn) [Compound 2853]
Second: CC(OP(=O)(N1CC1)N1CC1)c1ccc([N+](=O)[O-])c(Oc2ccc(C(N)=O)cc2)c1 (stereo not drawn) [Compound 2923]
The pIC50 of the first is higher: greater than 8.30 for the first, 7.70 for the second.

Going from `CCOC(=O)c1cccc(Oc2cc(C(C)OP(=O)(N3CC3)N3CC3)ccc2[N+](=O)[O-])c1` (stereo not drawn) [Compound 2854] to `CC(OP(=O)(N1CC1)N1CC1)c1ccc([N+](=O)[O-])c(Oc2cccc(C(N)=O)c2)c1` (stereo not drawn) [Compound 2924], the pIC50 falls from greater than 8.30 to 7.00.

Compared with `CC(OP(=O)(N1CC1)N1CC1)c1ccc([N+](=O)[O-])c(Oc2cccc(N(C)C)c2)c1` (stereo not drawn) [Compound 2855], `CNC(=O)c1cccc(Oc2cc(C(C)OP(=O)(N3CC3)N3CC3)ccc2[N+](=O)[O-])c1` (stereo not drawn) [Compound 2884] is 0.48 log units higher in pIC50: 7.52 for the first, 8.00 for the second. The second is the more potent here.

Going from `CC(OP(=O)(N1CC1)N1CC1)c1ccc([N+](=O)[O-])c(Oc2ccc(Cl)cc2)c1` (stereo not drawn) [Compound 2860] to `CC(OP(=O)(N1CC1)N1CC1)c1ccc([N+](=O)[O-])c(Oc2ccc(F)cc2)c1` (stereo not drawn) [Compound 2861], the pIC50 falls from 8.00 to 7.70 (0.30 log units).

`CC(OP(=O)(N1CC1)N1CC1)c1ccc([N+](=O)[O-])c(Oc2ccccc2Cl)c1` (stereo not drawn) [Compound 2862] and `CC(OP(=O)(N1CC1)N1CC1)c1ccc([N+](=O)[O-])c(Oc2ccccc2F)c1` (stereo not drawn) [Compound 2865] are within 0.2 log units of each other in pIC50: 7.40 for the first, 7.52 for the second.

`CC(OP(=O)(N1CC1)N1CC1)c1ccc([N+](=O)[O-])c(Oc2ccc(F)cc2F)c1` (stereo not drawn) [Compound 2863] and `CC(OP(=O)(N1CC1)N1CC1)c1ccc([N+](=O)[O-])c(Oc2ccc(Cl)cc2Cl)c1` (stereo not drawn) [Compound 2864] are the same in pIC50: 7.70 for the first, 7.70 for the second.

`CC(OP(=O)(N1CC1)N1CC1)c1ccc([N+](=O)[O-])c(Oc2ccc3c(c2)OCO3)c1` (stereo not drawn) [Compound 2866] and `CC(OP(=O)(N1CC1)N1CC1)c1ccc([N+](=O)[O-])c(Oc2ccc3ocnc3c2)c1` (stereo not drawn) [Compound 2914] are within 0.2 log units of each other in pIC50: 7.70 for the first, 7.52 for the second.

`CC(OP(=O)(N1CC1)N1CC1)c1ccc([N+](=O)[O-])c(Oc2cccc(C(F)(F)F)c2)c1` (stereo not drawn) [Compound 2871] and `CC(OP(=O)(N1CC1)N1CC1)c1ccc([N+](=O)[O-])c(Oc2c(F)cccc2F)c1` (stereo not drawn) [Compound 2932] are within 0.2 log units of each other in pIC50: 7.52 for the first, 7.70 for the second.

`CC(OP(=O)(N1CC1)N1CC1)c1ccc([N+](=O)[O-])c(Oc2ccc(C#N)cc2)c1` (stereo not drawn) [Compound 2872] and `CC(OP(=O)(N1CC1)N1CC1)c1ccc([N+](=O)[O-])c(Oc2ccc([N+](=O)[O-])cc2)c1` (stereo not drawn) [Compound 2935] are within 0.2 log units of each other in pIC50: 7.52 for the first, 7.70 for the second.

Compared with `CC(OP(=O)(N1CC1)N1CC1)c1ccc([N+](=O)[O-])c(Oc2ccccn2)c1` (stereo not drawn) [Compound 2874], `O=[N+]([O-])c1ccc(COP(=O)(N2CC2)N2CC2)cc1Oc1ccccn1` [Compound 2875] is 0.81 log units lower in pIC50: 6.30 for the first, 5.49 for the second. The first is the more potent here.

Compared with `CCOC(=O)c1ccc(Oc2cc(COP(=O)(N3CC3)N3CC3)ccc2[N+](=O)[O-])cc1` [Compound 2876], `CNC(=O)c1ccc(Oc2cc(COP(=O)(N3CC3)N3CC3)ccc2[N+](=O)[O-])cc1` [Compound 2940] is 0.22 log units lower in pIC50: 8.52 for the first, 8.30 for the second. The first is the more potent here.

First: O=[N+]([O-])c1ccc(COP(=O)(N2CC2)N2CC2)cc1Oc1cccnc1 [Compound 2877]
Second: O=[N+]([O-])c1ccc(COP(=O)(N2CC2)N2CC2)cc1Oc1ccc(F)nc1 [Compound 2892]
The pIC50 of the first is 1.00 log units lower: 7.70 for the first, 8.70 for the second. The second is the more potent here.

First: CC(OP(=O)(N1CC1)N1CC1)c1ccc([N+](=O)[O-])c(Oc2nc3ccccc3s2)c1 (stereo not drawn) [Compound 2878]
Second: Cc1nc2cc(Oc3cc(C(C)OP(=O)(N4CC4)N4CC4)ccc3[N+](=O)[O-])ccc2s1 (stereo not drawn) [Compound 2928]
The pIC50 of the first is 2.16 log units lower: 5.36 for the first, 7.52 for the second.

`CC(OP(=O)(N1CC1)N1CC1)c1ccc([N+](=O)[O-])c(Oc2ccc(S(N)(=O)=O)cc2)c1` (stereo not drawn) [Compound 2880] and `CNS(=O)(=O)c1ccc(Oc2cc(C(C)OP(=O)(N3CC3)N3CC3)ccc2[N+](=O)[O-])cc1` (stereo not drawn) [Compound 2902] are within 0.2 log units of each other in pIC50: 7.00 for the first, 7.05 for the second.

First: CC(OP(=O)(N1CC1)N1CC1)c1ccc([N+](=O)[O-])c(Oc2ccc(S(=O)(=O)N(C)C)cc2)c1 (stereo not drawn) [Compound 2881]
Second: CC(OP(=O)(N1CC1)N1CC1)c1ccc([N+](=O)[O-])c(Oc2ccc(C(=O)N(C)C)cc2)c1 (stereo not drawn) [Compound 2908]
The pIC50 of the first is 0.63 log units lower: 7.52 for the first, 8.15 for the second.

`CC(OP(=O)(N1CC1)N1CC1)c1ccc([N+](=O)[O-])c(Oc2ccccc2C(=O)N(C)C)c1` (stereo not drawn) [Compound 2885] and `CNC(=O)c1ccccc1Oc1cc(C(C)OP(=O)(N2CC2)N2CC2)ccc1[N+](=O)[O-]` (stereo not drawn) [Compound 2910] are within 0.2 log units of each other in pIC50: 5.43 for the first, 5.46 for the second.

First: NS(=O)(=O)c1ccc(Oc2cc(COP(=O)(N3CC3)N3CC3)ccc2[N+](=O)[O-])cc1 [Compound 2887]
Second: CNS(=O)(=O)c1ccc(Oc2cc(COP(=O)(N3CC3)N3CC3)ccc2[N+](=O)[O-])cc1 [Compound 2903]
The pIC50 of the first is 0.82 log units lower: 6.70 for the first, 7.52 for the second. The second is the more potent here.

`Cc1ccc(Oc2cc(C(C)OP(=O)(N3CC3)N3CC3)ccc2[N+](=O)[O-])cn1` (stereo not drawn) [Compound 2891] and `CC(OP(=O)(N1CC1)N1CC1)c1ccc([N+](=O)[O-])c(Oc2ccc(F)nc2)c1` (stereo not drawn) [Compound 2893] are within 0.2 log units of each other in pIC50: 7.52 for the first, 7.70 for the second.

First: COc1ccc(Oc2cc(COP(=O)(N3CC3)N3CC3)ccc2[N+](=O)[O-])cc1 [Compound 2895]
Second: Nc1ccc(Oc2cc(COP(=O)(N3CC3)N3CC3)ccc2[N+](=O)[O-])cc1 [Compound 2896]
The pIC50 of the first is 1.40 log units higher: 8.40 for the first, 7.00 for the second. The first is the more potent here.

`CC(OP(=O)(N1CC1)N1CC1)c1ccc([N+](=O)[O-])c(Oc2ccc(-c3nccs3)cc2)c1` (stereo not drawn) [Compound 2898] and `CC(OP(=O)(N1CC1)N1CC1)c1ccc([N+](=O)[O-])c(Oc2ccc(-c3ncco3)cc2)c1` (stereo not drawn) [Compound 2904] are the same in pIC50: 8.00 for the first, 8.00 for the second.

`O=[N+]([O-])c1ccc(COP(=O)(N2CC2)N2CC2)cc1Oc1ccc(-c2nccs2)cc1` [Compound 2899] and `N#Cc1ccc(Oc2cc(COP(=O)(N3CC3)N3CC3)ccc2[N+](=O)[O-])cc1` [Compound 2927] are within 0.2 log units of each other in pIC50: 8.40 for the first, 8.52 for the second.

Going from `CC(OP(=O)(N1CC1)N1CC1)c1ccc([N+](=O)[O-])c(Oc2ccc3ncsc3c2)c1` (stereo not drawn) [Compound 2900] to `Cc1nc2ccc(Oc3cc(C(C)OP(=O)(N4CC4)N4CC4)ccc3[N+](=O)[O-])cc2s1` (stereo not drawn) [Compound 2930], the pIC50 rises from 7.40 to 8.70 (1.30 log units).

Compared with `CNC(=O)c1ccc(Oc2cc(C(C)OP(=O)(N3CC3)N3CC3)ccc2[N+](=O)[O-])cc1` (stereo not drawn) [Compound 2909], `CC(OP(=O)(N1CC1)N1CC1)c1ccc([N+](=O)[O-])c(Oc2ccc(NS(C)(=O)=O)cc2)c1` (stereo not drawn) [Compound 2912] is 0.60 log units lower in pIC50: 8.00 for the first, 7.40 for the second. The first is the more potent here.

First: CC(OP(=O)(N1CC1)N1CC1)c1ccc([N+](=O)[O-])c(Oc2ccc(NS(=O)(=O)C(F)(F)F)cc2)c1 (stereo not drawn) [Compound 2913]
Second: CC(OP(=O)(N1CC1)N1CC1)c1ccc([N+](=O)[O-])c(Oc2ccc(S(=O)(=O)Nc3ccc(F)cc3)cc2)c1 (stereo not drawn) [Compound 2916]
The pIC50 of the first is 0.23 log units higher: 7.15 for the first, 6.92 for the second.

Compared with `O=[N+]([O-])c1ccc(COP(=O)(N2CC2)N2CC2)cc1Oc1ccc2ocnc2c1` [Compound 2915], `Cn1cnc2cc(Oc3cc(COP(=O)(N4CC4)N4CC4)ccc3[N+](=O)[O-])ccc21` [Compound 2921] is 1.10 log units higher in pIC50: 7.05 for the first, 8.15 for the second. The second is the more potent here.

Compared with `CC(OP(=O)(N1CC1)N1CC1)c1ccc([N+](=O)[O-])c(Oc2ccc3cnn(C)c3c2)c1` (stereo not drawn) [Compound 2917], `CC(OP(=O)(N1CC1)N1CC1)c1ccc([N+](=O)[O-])c(Oc2ccc3c(cnn3C)c2)c1` (stereo not drawn) [Compound 2919] is 0.70 log units higher in pIC50: 7.70 for the first, 8.40 for the second. The second is the more potent here.

Compared with `Cn1ncc2ccc(Oc3cc(COP(=O)(N4CC4)N4CC4)ccc3[N+](=O)[O-])cc21` [Compound 2918], `Cc1nc2cc(Oc3cc(COP(=O)(N4CC4)N4CC4)ccc3[N+](=O)[O-])ccc2s1` [Compound 2929] is 1.00 log units lower in pIC50: 8.52 for the first, 7.52 for the second. The first is the more potent here.

First: CC(OP(=O)(N1CC1)N1CC1)c1ccc([N+](=O)[O-])c(Oc2ccc3c(c2)ncn3C)c1 (stereo not drawn) [Compound 2920]
Second: CC(OP(=O)(N1CC1)N1CC1)c1ccc([N+](=O)[O-])c(Oc2cnc3cccnc3c2)c1 (stereo not drawn) [Compound 2933]
The pIC50 of the first is 0.70 log units higher: 7.70 for the first, 7.00 for the second.

Going from `CC(OP(=O)(N1CC1)N1CC1)c1ccc([N+](=O)[O-])c(Oc2cncnc2)c1` (stereo not drawn) [Compound 2925] to `CN(C)C(=O)c1ccc(Oc2cc(COP(=O)(N3CC3)N3CC3)ccc2[N+](=O)[O-])cc1` [Compound 2941], the pIC50 rises from 7.40 to 8.40 (1.00 log units).

`O=[N+]([O-])c1ccc(Oc2cc(COP(=O)(N3CC3)N3CC3)ccc2[N+](=O)[O-])cc1` [Compound 2934] and `CNC(=O)c1cccc(Oc2cc(COP(=O)(N3CC3)N3CC3)ccc2[N+](=O)[O-])c1` [Compound 2937] are within 0.2 log units of each other in pIC50: 8.52 for the first, 8.70 for the second.

`CN(C)C(=O)c1ccccc1Oc1cc(COP(=O)(N2CC2)N2CC2)ccc1[N+](=O)[O-]` [Compound 2938] and `CNC(=O)c1ccccc1Oc1cc(COP(=O)(N2CC2)N2CC2)ccc1[N+](=O)[O-]` [Compound 2939] are within 0.2 log units of each other in pIC50: 5.60 for the first, 5.57 for the second.

Source: patent US10766914B2, “DNA alkylating agents” (OBI PHARMA, INC., priority 2015, dated 2020)
